We go through 33 compounds from ChEMBL document CHEMBL1130565, “Development of the new potent non-peptide gpIIb/IIIa antagonist NSL-95301 by utilizing combinatorial technique” (Bioorg Med Chem Lett, 1997).

The species entered for one experiment is Homo sapiens. The experiment in a line: In vitro collagen induced platelet aggregation inhibitory activity using human platelet rich plasma anti-coagulated with 0.38% trisodium citrate. The class given is functional.
Conditions: not given
In the case of `CC(C)(C(=O)N1CCC(CC(=O)O)CC1)C(NC(=O)c1ccc(C(=N)N)cc1)c1ccccc1` (single isomer, unassigned; (+)), the IC50 was found to be 0.092 µM.

`CC(C)(C(=O)N1CCC(CC(=O)O)CC1)C(NC(=O)c1ccc(C(=N)N)cc1)c1ccccc1` (single isomer, unassigned; (-)): the half-inhibitory concentration (IC50) was determined as 31 µM.

`CC(C)(C(=O)N1CCC(CC(=O)O)CC1)C(NC(=O)c1ccc(C(=N)N)cc1)c1ccccc1` (stereo in doubt; 18): the midpoint of inhibition, the IC50, lay at 0.19 µM.

Still in this experiment, the particulars now being: Homo sapiens, Plasma.
`CCC(C(=O)N1CCC(CC(=O)O)CC1)C(NC(=O)c1ccc(C(=N)N)cc1)c1ccccc1` (stereo not drawn) gave an IC50 of 16 µM.

As for `C[C@@H](CC(=O)N1CCC(CC(=O)O)CC1)NC(=O)c1ccc(C(=N)N)cc1`, the midpoint of inhibition, the IC50, lay at 5 µM.

For the compound `C[C@H](NC(=O)c1ccc(C(=N)N)cc1)C(=O)N1CCC(CC(=O)O)CC1`, it took 30 µM to reach half-maximal inhibition (IC50).

The compound `N=C(N)Nc1ccc(C(=O)NCCC(=O)N2CCC(C(=O)O)CC2)cc1` displayed an IC50 of 750 µM. Compared with the last compound, the IC50 is about 25-fold higher.

`N=C(N)c1ccc(C(=O)N[C@@H](CC(=O)N2CCC(CC(=O)O)CC2)C(=O)Oc2ccccc2)cc1` registered an IC50 of 4.1 µM.

With `CN(CC(=O)N1CCC(CC(=O)O)CC1)C(=O)c1ccc(CN=C(N)N)cc1`, the IC50 is more than 1000 µM.

On to `CC(C)[C@@H](CC(=O)N1CCC(CC(=O)O)CC1)NC(=O)c1ccc(C(=N)N)cc1`, for which the IC50 stood at 9.2 µM.

Consider `N=C(N)c1ccc(C(=O)N[C@H](CC(=O)N2CCC(CC(=O)O)CC2)c2ccccc2)cc1`, for which the IC50 worked out at 5.2 µM.

In the case of `C[C@H](NC(=O)c1ccc(NC(=N)N)cc1)C(=O)N1CCC(C(=O)O)CC1`, the 50% inhibitory concentration (IC50) was more than 1000 µM.

In turn, `CCCCC(CNC(=O)c1ccc(C(=N)N)cc1)C(=O)N1CCC(CC(=O)O)CC1` (stereo not drawn) gave an IC50 of 3.8 µM.

Regarding `N=C(N)c1ccc(C(=O)N[C@@H](CC(=O)N2CCC(CC(=O)O)CC2)C(=O)OC2CCCCC2)cc1`, the 50% inhibitory concentration (IC50) stood at 1.9 µM.

`CN(CC(=O)N1CCC(CC(=O)O)CC1)C(=O)c1ccc(C(=N)N)cc1` displayed a half-maximal inhibitory concentration (IC50) of 7.5 µM.

Take `N=C(N)NCc1ccc(C(=O)NCCC(=O)N2CCC(C(=O)O)CC2)cc1`: the IC50 is more than 1000 µM.

In turn, `N=C(N)c1ccc(C(=O)N2CCCC(C(=O)N3CCC(CC(=O)O)CC3)C2)cc1` (stereo not drawn) had a 50% inhibitory concentration (IC50) of 25 µM.

`CC(C)C(CNC(=O)c1ccc(C(=N)N)cc1)C(=O)N1CCC(CC(=O)O)CC1` (stereo not drawn) showed a 50% inhibitory concentration (IC50) of 25 µM.

The compound `N=C(N)c1ccc(C(=O)NCC(Cc2ccccc2)C(=O)N2CCC(CC(=O)O)CC2)cc1` (stereo not drawn) came in with an IC50 of 4.1 µM.

`CC(C)C(C(=O)N1CCC(CC(=O)O)CC1)C(NC(=O)c1ccc(C(=N)N)cc1)c1ccccc1` (stereo not drawn) returned an IC50 of 82 µM.

The compound `CC(CNC(=O)c1ccc(C(=N)N)cc1)C(=O)N1CCC(CC(=O)O)CC1` (stereo not drawn) displayed a 50% inhibitory concentration (IC50) of 0.59 µM.

Compound `C[C@H](NC(=O)c1ccc(CN=C(N)N)cc1)C(=O)N1CCC(C(=O)O)CC1` yielded an IC50 of 710 µM.

`CN(CCC(=O)N1CCC(CC(=O)O)CC1)C(=O)c1ccc(C(=N)N)cc1` yielded an IC50 of 6.5 µM. Against the preceding compound, the IC50 is about 110-fold lower.

In the case of `N=C(N)c1ccc(C(=O)NCCC(=O)N2CCC(OCC(=O)O)CC2)cc1`, the IC50 was determined as 18 µM.

`C[C@H](NC(=O)c1ccc(C(=N)N)cc1)C(=O)N1CCC(C(=O)O)CC1` displayed an IC50 of 110 µM. This IC50 is about 6.1-fold higher than that of the compound before.

`CN(CC(=O)N1CCC(C(=O)O)CC1)C(=O)c1ccc(CN=C(N)N)cc1` showed a half-inhibitory concentration (IC50) of 53 µM.

`N=C(N)c1ccc(C(=O)NCCC(=O)N2CCC(C(=O)O)CC2)cc1` came in with an IC50 of 33 µM.

Compound `N=C(N)c1ccc(C(=O)NCC(Cc2ccc(O)cc2)C(=O)N2CCC(CC(=O)O)CC2)cc1` (stereo not drawn) gave an IC50 of 0.94 µM. Against the preceding compound, the IC50 is about 35-fold lower.

With `N=C(N)c1ccc(C(=O)N2CCCC2CC(=O)N2CCC(CC(=O)O)CC2)cc1` (stereo not drawn), the IC50 is 4.3 µM. Compared with the last compound, the IC50 is about 4.6-fold higher.

`CC(C)(CNC(=O)c1ccc(C(=N)N)cc1)C(=O)N1CCC(CC(=O)O)CC1`: the IC50 is 0.57 µM.

Regarding `CN(CC(=O)N1CCC(C(=O)O)CC1)C(=O)c1ccc(C(=N)N)cc1`, the half-maximal inhibitory concentration (IC50) was determined as 330 µM.

`CN(CC(=O)N1CCC(C(=O)O)CC1)C(=O)c1ccc(NC(=N)N)cc1` showed an IC50 of 100 µM.

On to `CN(CC(=O)N1CCC(CC(=O)O)CC1)C(=O)c1ccc(NC(=N)N)cc1`, for which the IC50 turned out to be 750 µM.

Broadly, the IC50 is the concentration needed to halve the response being measured.
